Laboratory results from publication PMC9603561, “Anticoagulants as Potential SARS-CoV-2 M^pro Inhibitors for COVID-19 Patients: In Vitro, Molecular Docking, Molecular Dynamics, DFT, and SAR Studies” (International Journal of Molecular Sciences, 2022).
Like-named read-outs stand apart in the source and are kept apart here.

Legend:
SARS-CoV-2 M^pro enzyme = molecular target: T1, SARS-CoV-2 M^pro enzyme (Severe acute respiratory syndrome coronavirus 2, UniProt P0DTD1); assay: SARS-CoV-2 M^pro inhibitory assay (3CL Protease Assay Kit); format: biochemical
T1 construct: The 3CL Protease Assay Kit was used; purchased

[1] = system: SARS-CoV-2 (hCoV-19/Egypt/NRC-03/2020); assay: Crystal violet assay, SARS-CoV-2 inhibitory assay (cell-based); settings: Vero E6 cells, crystal violet CPE readout, read-out: Inhibitory Concentration (IC50) against SARS-CoV-2
MTT cytotoxicity assay = format: cell-based; settings: African green monkey
Description: (§1) Half of the maximal cytotoxic concentrations (CC50) were assessed to obtain the exact concentration of a compound that caused a rupture to 50% of cells after being treated with variant doses from the compounds to calculate the safety index (SI) = CC50/IC50 for each compound. The assay was performed through stock solution preparation of the target compounds in DMSO/ddH2O (for those in powder form). However, those in solution form were used directly. The prepared solutions were further diluted with DMEM by attaining the working solutions. […] Shortly, 96 well-plates were utilized for cell seeding and incubated at 37 °C in 5% CO2 for 24 h afterward. After one day, the incubated cells were subjected to different concentrations in triplicates of the investigated compounds. After another 24 h, the supernatant was dismissed, and sterile 1x phosphate buffer saline (PBS) was used for cell monolayer washing in triplicates. Thus, 20 µL of 5 mg/mL stock solution was added to each well and then incubated at 37 °C, followed by a medium aspiration for 4 h. So, the formed formazan crystals were dissolved by 200 µL isopropyl alcohol or DMSO. The formazan solution absorbance was measured at 540 nm (λmax) using a multi-well plate reader, while the reference wavelength was 620 nm. The CC50 of each target compound was measured employing nonlinear regression analysis of GraphPad Prism software.

Vero E6 cells = assay: MTT cytotoxicity assay; format: cell-based; settings: Vero E6 cells, MTT, 24 h treatment; read-out: Cytotoxicity Concentration (CC50)
Description: as §1

[2] = fluorogenic substrate, triplicate
[3] = Severe acute respiratory syndrome coronavirus 2, Vero C1008, 72 h

Molecule | IC50 (SARS-CoV-2 M^pro enzyme; [2]) | IC50 [1, 3] | IC50 ([1]; 72 h) | CC50 at 24 h (MTT cytotoxicity assay; Vero E6 cells, MTT, 24 h treatment, read-out: Cytotoxicity Concentration (CC50)) | CC50 at 24 h (MTT cytotoxicity assay) | IC50 (SARS-CoV-2 M^pro enzyme; read-out: SARS-CoV-2 M^pro IC50, fluorogenic substrate, triplicate) | CC50 (Vero E6 cells)
[H]/N=C(/N)c1ccc(NCc2nc3cc(C(=O)N(CCC(=O)O)c4ccccn4)ccc3n2C)cc1 [Dabigatran, dabigatran] | 10.6 µM | 9.45 µM | 9.4 µM | 142 µM |  |  | 
CO[C@H]1O[C@H](COS(=O)(=O)O)[C@@H](O[C@@H]2O[C@@H](C(=O)O)[C@@H](O[C@H]3O[C@H](COS(=O)(=O)O)[C@@H](O[C@@H]4O[C@H](C(=O)O)[C@@H](O[C@H]5O[C@H](COS(=O)(=O)O)[C@@H](O)[C@H](O)[C@H]5NS(=O)(=O)O)[C@H](O)[C@H]4O)[C@H](OS(=O)(=O)O)[C@H]3NS(=O)(=O)O)[C@H](O)[C@H]2OS(=O)(=O)O)[C@H](O)[C@H]1NS(=O)(=O)O [Fondaparinux sodium, fondaparinux sodium] | 2.36 µM | 8.69 µM | 8.6 µM |  | 152 µM |  | 
CCCSc1nc(N[C@@H]2C[C@H]2c2ccc(F)c(F)c2)c2nnn([C@@H]3C[C@H](OCCO)[C@@H](O)[C@H]3O)c2n1 [Ticagrelor, ticagrelor] | 47.5 µM | 5.6 µM |  |  | 142 µM |  | 
CCC[C@@]1(CCc2ccccc2)CC(O)=C([C@H](CC)c2cccc(NS(=O)(=O)c3ccc(C(F)(F)F)cn3)c2)C(=O)O1 [tipranavir] | 7.38 µM |  |  |  |  |  | 
heparin |  |  | 106 µM |  |  | 153 µM | 262 µM
